{"source": "patent US8207185B2", "about": "“CaMKKβ as a target for treating obesity” (Duke University, priority 2006, dated 2012)", "key": {"[1]": {"system": "NPY and AgRP mRNA", "assay": "Third-ventricle infusion of STO-609 in living mice: hypothalamic NPY and AgRP mRNA quantified by RT-PCR", "type": "in vivo", "conditions": "20 uM STO-609 by osmotic mini-pump, 0.5 ul/hr for 7 days, into third ventricle; versus NaOH vehicle; FIG. 1", "protocol": "(§1) To test the effect of STO-609 on feeding behavior, we stereotaxically implanted cannula into the third ventricle of living mice and attached the cannula to osmotic min-pumps that distribute fluids at a rate of 0.5 ul/hr for 7 days. Half of the pumps contained 20 uM STO-609 whereas the other half contained the NaOH vehicle. We monitored body weight together with food and water intake daily for 7 days. Then the mice were sacrificed, hypothalami were removed, RNA extracted and the mRNAs encoding NPY and AgRP were quantified by RT-PCR. […] In addition, STO-609 decreased the total amount of food consumed over the 7 day period by 60% (FIG. 2, left panel) but had no effect on water consumption. In addition, whereas the WT mice gained body weight during the 7 day period (about 4% relative to the starting weight) the STO-609 treated mice lost weight (about 7% relative to the starting weight) (FIG. 2, right panel)."}, "[2]": {"system": "feeding behavior of living mice", "assay": "Third-ventricle infusion of STO-609 in living mice: food intake, water intake and body weight over 7 days", "type": "in vivo", "conditions": "20 uM STO-609, 0.5 ul/hr for 7 days", "protocol": "as §1"}}, "data": [{"smiles": "O=C(O)c1ccc2c3c1cccc3c(=O)n1c3ccccc3nc21", "note": "[STO-609]", "values": [{"measurement": "AgRP mRNA in hypothalamic RNA", "setting": "[1]", "result": "highly statistically significant decreases"}, {"measurement": "NPY mRNA in hypothalamic RNA", "setting": "[1]", "result": "highly statistically significant decreases"}, {"measurement": "effect on water consumption", "setting": "[2]", "result": "no effect"}, {"measurement": "body weight lost relative to the starting weight", "setting": "[2]; 7 day period, FIG. 2, right panel", "result": "about 7%"}, {"measurement": "decrease of total amount of food consumed over the 7 day period", "setting": "[2]; FIG. 2, left panel", "result": 60, "unit": "%"}]}]}
